The source of these data is publication PMC9611048, “Rapid Simultaneous Determination of Three Synthetic Cannabinoids in Urine and Plasma of Rats Using Ultra-High Performance Liquid Chromatography Tandem Mass Spectrometry” (Toxics, 2022).

The nature of data set [1]: Determination of synthetic cannabinoids in rat urine by LC-MS/MS after dosing. It is filed as in vivo. Particulars: for concentration at 2 h / concentration at 4 h / concentration at 8 h / concentration at 24 h / concentration at 48 h / concentration at 72 h: male, Sprague-Dawley, intravenous; for detection window: rat, the dose for the tail vein was 1 mg/kg. As to the method: (§1) The Sprague–Dawley male rats (n = 12, 6 weeks, weighing 190–210 g) were obtained from Zhejiang Academy of Medical Sciences (Hangzhou, Zhejiang, China) and acclimatized for 1 week before exposure in the experimental room (temperature 23 ± 2 ℃, humidity 55 ± 10%, 12 h light–dark cycle). After 1-week adaptation, rats were fasted for 16 h before […]. The rats were randomly allocated to 3 groups, the JWH-122, 5F-AMB, and AMB-PUBINACA group, while the doses were all 1 mg/kg bw/day by tail vein injection. The urine samples were collected at 2 h, 4 h, 8 h, and 24 h during the initial 24 h and every 24 h during the next 48 h. The blood samples were collected from the abdominal aorta. Finally, urine samples and blood samples were obtained from each rat and stored at −80 °C. All the above animal experimental procedures were approved by the Zhejiang Center of Laboratory Animals Welfare and Ethical Review Committee (Approval ID: ZJCLA-IACUC-20100005; Hangzhou, China).
(§2) In this experiment, extraction conditions of three synthetic cannabinoids in rat plasma and urine were optimized, and the detailed parameters are shown in Table 1. Briefly, 100 μL of plasma sample was transferred into a centrifuge tube with 100 μL of acetonitrile and 500 μL of methanol and then vortexed for 6 min. Finally, the supernatant was centrifuged at 12,000 rpm for 10 min then filtered through a 0.22 μm cellulose filter. Solid phase extraction (SPE) is a common pretreatment method for the synthesis of cannabinoids in urine. The urine sample was extracted by SPE. The SPE cartridges were conditioned with 3 mL of methanol followed by 6 mL of water. Amounts of 1.6 mL of acetonitrile and water were added to 400 µL of urine, mixed uniform. After sample loading, the cartridges were respectively washed with 3 mL of 5% methanol, discard wash. The extract was eluted via 4 mL of methanol and evaporated to dryness under a stream of nitrogen at 40 ℃.
The AB SCIEX ExionLCTM0AD XR high-performance liquid chromatograph system coupled with the SCIEX QTRAP 6500^+ triple quadrupole/linear ion trap mass spectrometer system (AB SCIEX, Milford, MA, USA) was used for analysis. Chromatographic separation was carried out using a Waters UPLC HSS T3 (150 × 2.1 mm, 1.8 μm) column at 40 °C;. Injection volume was 1 μL. The mobile phase comprised 0.1% formic acid in water (A) and acetonitrile (B) at a flow rate of 0.3 mL/min. Gradient conditions were set as follows: 10% B (1 min), to 100% B (in 6 min), hold 100% B (4 min), to 10% B (in 0.1 min), and hold (1.9 min).
The separated analytes were quantified using an AB SCIEX 6500^+ quadrupole ion trap mass spectrometer (QTRAP MS) under the multiple reaction monitoring (MRM) mode with […] ion channels (Table 2). The mass spectrometry parameters were set as follows: curtain gas, 35 psi; collision gas, medium; ion spray voltage, 5500 V; source temperature, 550 ℃; nebulizing gas, 50 psi; heater gas, 50 psi. The HPLC-QTRAP-MS data were converted to SCIEX OS 1.4.0.18067 (SCIEX, Toronto, QUE, CA) for qualitative and quantitative analysis.

Data set [2] is described as follows: Determination of synthetic cannabinoids in rat plasma by LC-MS/MS after dosing. The data set is classed as in vivo. The conditions noted are these: 1 mg/kg tail vein injection; for concentration at 72 h: male, Sprague-Dawley, intravenous. The protocol:
as §1
as §2, with “After sample loading, the cartridges were respectively washed with 3 mL of 5% methanol, discard wash. The extract was eluted via 4 mL of methanol and evaporated to dryness under a stream of nitrogen at 40 ℃.” left out
The separated analytes were quantified using an AB SCIEX 6500^+ quadrupole ion trap mass spectrometer (QTRAP MS) under the multiple reaction monitoring (MRM) mode with negative ion channels (Table 2). […] The HPLC-QTRAP-MS data were converted to SCIEX OS 1.4.0.18067 (SCIEX, Toronto, QUE, CA) for qualitative and quantitative analysis.

Setting [3] is: rat urine, 1 mg/kg tail vein injection.
Setting [4] is: rat urine, 72 h, 1 mg/kg tail vein injection.

Turning to `COC(=O)[C@@H](NC(=O)c1nn(CCCCCF)c2ccccc12)C(C)C` [5F-AMB, methyl (1-(5-fluoropentyl)-1H-indazole-3-carbonyl)-L-valinate], in data set [1] (setting [3]), the concentration at 2 h stood at 8.68 ng/mL, the concentration at 4 h was 1.11 ng/mL, the concentration at 8 h was 0.72 ng/mL and the concentration at 24 h amounted to 0.14 ng/mL. The molecule also registered a concentration at 48 h in data set [1] (setting [3]) of 0.03 ng/mL. The concentration at 72 h in data set [1] (setting [4]) was 0.01 ng/mL. The detection window in data set [1] was 2 to 3 days. Also, the “Plasma Concentration 72 h” value in data set [2] is “not detected”.

Take `COC(=O)C(NC(=O)c1nn(Cc2ccc(F)cc2)c2ccccc12)C(C)C` (stereo not drawn) [AMB-FUBINACA, methyl 2-(1-(4-fluorobenzyl)-1Hindazole-3-carboxamido)-3-methylbutanoate]: in data set [1] (setting [3]), the concentration at 2 h came out at 3.38 ng/mL, the concentration at 4 h turned out to be 0.41 ng/mL, the concentration at 8 h is 0.19 ng/mL and the concentration at 24 h was 0.1 ng/mL. In data set [1] (setting [3]), this molecule had a concentration at 48 h of 0.03 ng/mL. For the same molecule, the “Urine Concentration 72 h” value in data set [1] (setting [4]) is listed as “not detected”. Further, the detection window in data set [1] is 2 to 3 days. For the same molecule, in data set [2], the concentration at 72 h worked out at 0.05 ng/mL.

In data set [1] (setting [3]), `CCCCCn1cc(C(=O)c2ccc(C)c3ccccc23)c2ccccc21` [JWH-122, 4-methylnaphthalen-1-yl-(1-pentylindol-3-yl) methanone] gave a concentration at 2 h of 0.2 ng/mL, a concentration at 4 h of 0.12 ng/mL, a concentration at 8 h of 0.09 ng/mL and a concentration at 24 h of 0.06 ng/mL. In data set [1] (setting [3]), this molecule came in with a concentration at 48 h of 0.02 ng/mL. The same molecule yielded a concentration at 72 h in data set [1] (setting [4]) of 0.01 ng/mL. In data set [1], this molecule returned a detection window of 2 to 3 days. In data set [2], this molecule displayed a concentration at 72 h of 0.08 ng/mL.
